≈ marks a conversion by molar mass, not a printed value.
These molecules were tested on Xanthomonas vesicatoria (assay: Antibacterial activity against Xanthomonas vesicatoria by broth microdilution assay).
Type: functional

Compound	MIC [µg/mL]
Cc1cc(C)c2[nH]c3cc(Br)c(Br)cc3c2c1	50 (≈ 142 µM)
COC(=O)Nc1cc(Br)c(Br)cc1C(=O)OC	> 250
CC(C)=C1C(=O)N(O)c2cc(Br)c(Br)cc21	> 250
Oc1ccc(Cc2c(Br)[nH]c3cc(Br)c(Br)cc23)cc1Br	8 (≈ 14.8 µM)
CC1(C)S[C@@H]2[C@H](NC(=O)Cc3ccccc3)C(=O)N2[C@H]1C(=O)O [PENICILLIN G]	250 (≈ 748 µM)

Each molecule was assayed on Pseudomonas amygdali pv. lachrymans (assay: Antibacterial activity against Pseudomonas lachrymans by broth microdilution assay).
Type: functional

Compound	MIC [µg/mL]
Cc1cc(C)c2[nH]c3cc(Br)c(Br)cc3c2c1	> 250
COC(=O)Nc1cc(Br)c(Br)cc1C(=O)OC	> 250
CC(C)=C1C(=O)N(O)c2cc(Br)c(Br)cc21	50 (≈ 144 µM)
Oc1ccc(Cc2c(Br)[nH]c3cc(Br)c(Br)cc23)cc1Br	8 (≈ 14.8 µM)
CC1(C)S[C@@H]2[C@H](NC(=O)Cc3ccccc3)C(=O)N2[C@H]1C(=O)O [PENICILLIN G]	250 (≈ 748 µM)

These molecules were tested on Ralstonia solanacearum (assay: Antibacterial activity against Ralstonia solanacearum by broth microdilution assay).
Type: functional

Compound	MIC [µg/mL]
Cc1cc(C)c2[nH]c3cc(Br)c(Br)cc3c2c1	> 250
COC(=O)Nc1cc(Br)c(Br)cc1C(=O)OC	> 250
CC(C)=C1C(=O)N(O)c2cc(Br)c(Br)cc21	50 (≈ 144 µM)
Oc1ccc(Cc2c(Br)[nH]c3cc(Br)c(Br)cc23)cc1Br	4 (≈ 7.42 µM)
CC1(C)S[C@@H]2[C@H](NC(=O)Cc3ccccc3)C(=O)N2[C@H]1C(=O)O [PENICILLIN G]	250 (≈ 748 µM)

Each molecule was assayed on Staphylococcus aureus (assay: Antibacterial activity against Staphylococcus aureus by broth microdilution assay).
Type: functional

Compound	MIC [µg/mL]
Cc1cc(C)c2[nH]c3cc(Br)c(Br)cc3c2c1	> 250
COC(=O)Nc1cc(Br)c(Br)cc1C(=O)OC	> 250
CC(C)=C1C(=O)N(O)c2cc(Br)c(Br)cc21	12.5 (≈ 36 µM)
Oc1ccc(Cc2c(Br)[nH]c3cc(Br)c(Br)cc23)cc1Br	2 (≈ 3.71 µM)
CC1(C)S[C@@H]2[C@H](NC(=O)Cc3ccccc3)C(=O)N2[C@H]1C(=O)O [PENICILLIN G]	0.25 (≈ 0.748 µM)

Each molecule was assayed on Bacillus thuringiensis (assay: Antibacterial activity against Bacillus thuringiensis by broth microdilution assay).
Type: functional

Compound	MIC [µg/mL]
Cc1cc(C)c2[nH]c3cc(Br)c(Br)cc3c2c1	> 250
COC(=O)Nc1cc(Br)c(Br)cc1C(=O)OC	> 250
CC(C)=C1C(=O)N(O)c2cc(Br)c(Br)cc21	50 (≈ 144 µM)
Oc1ccc(Cc2c(Br)[nH]c3cc(Br)c(Br)cc23)cc1Br	8 (≈ 14.8 µM)
CC1(C)S[C@@H]2[C@H](NC(=O)Cc3ccccc3)C(=O)N2[C@H]1C(=O)O [PENICILLIN G]	64 (≈ 191 µM)

These molecules were tested on Bacillus subtilis (assay: Antibacterial activity against Bacillus subtilis by broth microdilution assay).
Type: functional

Compound	MIC [µg/mL]
Cc1cc(C)c2[nH]c3cc(Br)c(Br)cc3c2c1	> 250
COC(=O)Nc1cc(Br)c(Br)cc1C(=O)OC	> 250
CC(C)=C1C(=O)N(O)c2cc(Br)c(Br)cc21	50 (≈ 144 µM)
Oc1ccc(Cc2c(Br)[nH]c3cc(Br)c(Br)cc23)cc1Br	8 (≈ 14.8 µM)
CC1(C)S[C@@H]2[C@H](NC(=O)Cc3ccccc3)C(=O)N2[C@H]1C(=O)O [PENICILLIN G]	0.125 (≈ 0.374 µM)

The molecules below were run on Agrobacterium tumefaciens (assay: Antibacterial activity against Agrobacterium tumefaciens by broth microdilution assay).
Type: functional

Compound	MIC [µg/mL]
Cc1cc(C)c2[nH]c3cc(Br)c(Br)cc3c2c1	> 250
COC(=O)Nc1cc(Br)c(Br)cc1C(=O)OC	> 250
CC(C)=C1C(=O)N(O)c2cc(Br)c(Br)cc21	12.5 (≈ 36 µM)
Oc1ccc(Cc2c(Br)[nH]c3cc(Br)c(Br)cc23)cc1Br	4 (≈ 7.42 µM)
CC1(C)S[C@@H]2[C@H](NC(=O)Cc3ccccc3)C(=O)N2[C@H]1C(=O)O [PENICILLIN G]	250 (≈ 748 µM)
